Measurements reported in US20250171438A1 (Agios Pharmaceuticals, Inc., priority 2022, published 2025).

Each molecule was assayed against T1, human PAH with the R408W mutation (Homo sapiens, UniProt P00439, R408W) (assay: Cell Based Phenylalanine Flux Assay). Settings: A375 cells expressing human R408W PAH; 24 hrs compound incubation; 13C-Tyrosine by LC-MS; average where tested multiple times; read-out: AC50.
T1 construct: expressed in transfected cells
T1 sequence (P00439 1-452 R408W): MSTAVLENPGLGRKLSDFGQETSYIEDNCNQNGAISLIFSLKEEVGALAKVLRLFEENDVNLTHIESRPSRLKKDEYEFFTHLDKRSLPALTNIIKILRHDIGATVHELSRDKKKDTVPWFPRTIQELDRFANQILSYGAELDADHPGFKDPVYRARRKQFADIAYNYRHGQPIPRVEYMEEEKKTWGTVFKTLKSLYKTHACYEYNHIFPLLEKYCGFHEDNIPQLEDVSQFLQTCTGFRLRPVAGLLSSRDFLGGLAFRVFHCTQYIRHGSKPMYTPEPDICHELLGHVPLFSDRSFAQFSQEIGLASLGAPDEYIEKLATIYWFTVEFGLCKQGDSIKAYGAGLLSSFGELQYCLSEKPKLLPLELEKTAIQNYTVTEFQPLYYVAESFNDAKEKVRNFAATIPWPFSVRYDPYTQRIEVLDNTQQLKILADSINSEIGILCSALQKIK
Set-up: scale not given here

`Cc1cc(C2(C(=O)N3CCc4[nH]cnc4[C@@H]3c3nc4ccccc4s3)CC2)on1` [Example 1550, (R)-(4-(benzo[d]thiazol-2-yl)-6,7-dihydro-1H-imidazo[4,5-c]pyridin-5(4H)-yl)(1-(3-methylisoxazol-5-yl)cyclopropyl)methanone] and `Cn1cc(-c2nc(C3CC3)c(C(=O)N3CCc4[nH]cnc4[C@@H]3c3nc4ccccc4s3)o2)cn1` [Example 1517, (R)-(4-(benzo[d]thiazol-2-yl)-6,7-dihydro-1H-imidazo[4,5-c]pyridin-5(4H)-yl)(4-cyclopropyl-2-(1-methyl-1H-pyrazol-4-yl)oxazol-5-yl)methanone] fall in the same range of AC50: 1000 to 5000 nM for the first, 1000 to 5000 nM for the second.

Compared with `CN(C)CCc1ccc2c(C(=O)N3CCc4[nH]cnc4[C@H]3c3nc4ccccc4s3)cnn2c1` [Example 1453], `O=C(c1cnn2ccccc12)N1CCc2[nH]cnc2[C@@H]1c1nc2c(Cl)cccc2s1` [Example 1222, (R)-(4-(4-chlorobenzo[d]thiazol-2-yl)-6,7-dihydro-1H-imidazo[4,5-c]pyridin-5(4H)-yl)(pyrazolo[1,5-a]pyridin-3-yl)methanone] is higher in AC50: < 500 nM for the first, 1000 to 5000 nM for the second.

First: O=C(c1nnc(-c2ccc(C(F)(F)F)cc2)o1)N1CCc2[nH]cnc2[C@H]1c1nc2ccccc2s1 [Example 1768]
Second: O=C(c1cnc(-c2cc(C(F)(F)F)ccn2)s1)N1CCc2[nH]cnc2[C@H]1c1nc2ccccc2s1 [Example 1357]
The AC50 of the first is higher: 500 to 1000 nM for the first, < 500 nM for the second.

First: Cc1cccc2sc([C@H]3c4nc[nH]c4CCN3C(=O)c3ocnc3C(F)F)nc12 [Example 2012, (R)-(4-(difluoromethyl)oxazol-5-yl)(4-(4-methylbenzo[d]thiazol-2-yl)-6,7-dihydro-1H-imidazo[4,5-c]pyridin-5(4H)-yl)methanone]
Second: COCc1nc(C(F)F)c(C(=O)N2CCc3[nH]cnc3[C@H]2c2nc3ccccc3s2)o1 [Example 1807]
The AC50 of the first is higher: 1000 to 5000 nM for the first, < 500 nM for the second.

Compared with `O=C(c1nc2ccccc2[nH]1)N1CCc2[nH]cnc2[C@H]1c1nc2ccccc2s1` [Example 1131], `c1ccc2[nH]c([C@@H]3c4nc[nH]c4CCN3c3nc4ccccc4o3)nc2c1` [Example 988, (S)-2-(4-(1H-benzo[d]imidazol-2-yl)-6,7-dihydro-1H-imidazo[4,5-c]pyridin-5(4H)-yl)benzo[d]oxazole] is lower in AC50: 500 to 1000 nM for the first, < 500 nM for the second.

Compared with `C[C@@H]1CN(C(=O)c2ocnc2C2CC2)[C@@H](c2nc3c(F)cccc3s2)c2nc[nH]c21` [Example 1552, (4-cyclopropyloxazol-5-yl)((4R,7R)-4-(4-fluorobenzo[d]thiazol-2-yl)-7-methyl-6,7-dihydro-1H-imidazo[4,5-c]pyridin-5(4H)-yl)methanone], `O=C(c1cnn2ccc(Cl)cc12)N1CCc2[nH]cnc2[C@H]1c1nc2cccc(F)c2s1` [Example 1301] is lower in AC50: 1000 to 5000 nM for the first, < 500 nM for the second.

First: O=C(CCc1nccs1)N1CCc2[nH]cnc2[C@@H]1c1ncc(Br)s1 [Example 2149, (R)-1-(4-(5-bromothiazol-2-yl)-6,7-dihydro-1H-imidazo[4,5-c]pyridin-5(4H)-yl)-3-(thiazol-2-yl)propan-1-one]
Second: O=C(c1oc(COC(F)(F)F)nc1C(F)F)N1CCc2[nH]cnc2[C@H]1c1nc2ccccc2s1 [Example 1831]
The AC50 of the first is higher: > 5000 nM for the first, < 500 nM for the second.

Same assay, conditions: A375 cells expressing human R408W PAH; 24 hrs with compound; 13C-Tyrosine by LC-MS; average where tested multiple times

For `O=C(c1nnc(CCCNC2CC2)o1)N1CCc2[nH]cnc2C1c1nc2ccccc2s1` (stereo not drawn), the AC50 was “E, E”.

Same assay, conditions: A375 cells expressing human R408W PAH; 24 hrs with compound; 13C-Tyrosine by LC-MS; average where tested multiple times; read-out: AC50

`O=C(c1nc2ccccc2s1)N1CCc2[nH]cnc2C1c1nc2ccc(Cl)cc2[nH]1` (stereo not drawn) and `O=C(c1cnn2cccc(F)c12)N1CCc2[nH]cnc2C1c1nc2ccc(Cl)cc2[nH]1` (stereo not drawn) cannot be ordered by AC50: > 5000 nM for the first, > 5000 nM for the second.

`O=C(Cc1ncc(-c2ccccc2)s1)N1CCc2[nH]cnc2C1c1nc2ccccc2s1` (stereo not drawn) and `Cc1nc(-c2ccccn2)oc1C(=O)N1CC(C)c2[nH]cnc2C1c1nc2ccccc2s1` (stereo not drawn) fall in the same range of AC50: 1000 to 5000 nM for the first, 1000 to 5000 nM for the second.

`CC1CN(C(=O)c2nnc(C(C)(C)O)o2)C(c2nc3ccccc3s2)c2nc[nH]c21` (stereo not drawn) and `O=C(c1nccs1)N1CCc2nc[nH]c2C1c1nc2ccc(F)cc2s1` (stereo not drawn) fall in the same range of AC50: 1000 to 5000 nM for the first, 1000 to 5000 nM for the second.
